Columns and labels:
[1] = Water solubility in aqueous buffer; conditions: aqueous buffer 10 mM Tris-HCl, pH 7.4, 20° C.
Protocol: The solid compounds were added stepwise to the buffer solution. More substance is added once all the suspended material is dissolved until an equilibrium between undissolved and dissolved substance is reached. The suspension was mixed using a shaker (Heidolph Reax 2000) and treated 5 min in an ultrasound bath (Bandelin, Sonorex Super RK255H).

[2] = Relaxivity measurements at 1.41 T in water; assay type: physicochemical; conditions: 37° C., normalized to Gd
Protocol: (§1) Relaxivity measurements at 1.41 T were performed using a MiniSpec mq60 spectrometer (Bruker Analytik, Karlsruhe, Germany) operating at a resonance frequency of 60 MHz and a temperature of 37° C. The T1 relaxation times were determined using the standard inversion recovery (IR) method with a fixed relaxation delay of at least 5×T1. The variable inversion time (TI) was calculated automatically by the standard software of the MiniSpec mq60 (8 steps). The T2 measurements were performed by using a Carr-Purcell-Meiboom-Gill (CPMG) pulse sequence, applying a relaxation delay of at least 5×T1.
Each relaxivity measurement was performed using three different Gd concentrations (3 concentrations between 0.05 and 2 mM). […] Human plasma preparation: For each experiment fresh blood was taken from a volunteer using 10 mL citrate-tubes (Sarstedt S-Monovette 02.1067.001, 10 mL, Citrate). The 10 mL citrate-tubes were carefully inverted 10 times to mix blood and anticoagulant and centrifuged for 15 min at 1811 g at RT (Eppendorf, Centrifuge 5810R).
(§2) The relaxivities n (where i=1, 2) were calculated based on the measured relaxation rates Ri in water and plasma: […]

[3] = Relaxivity measurements at 1.41 T in human plasma; assay type: physicochemical; conditions: 37° C., normalized to Gd
Protocol: as §1, with “The” for “Relaxivity measurements at 1.41 T were performed using a MiniSpec mq60 spectrometer (Bruker Analytik, Karlsruhe, Germany) operating at a resonance frequency of 60 MHz and a temperature of 37° C. The”
Each relaxivity measurement was performed using three different Gd concentrations (3 concentrations between 0.05 and 2 mM).
as §2

[4] = biological target: T1, OATP1B1 (Homo sapiens, UniProt Q9Y6L6); assay: Uptake into stable transfected OATP1B1 HEK 293 cells; assay type: cell-based; conditions: for Uptake into OATP1B1-HEK 293 cells: 40 min incubation, relative to RC1 (Gd-EOB-DTPA); for Inhibition Rifampicine: uptake into OATP1B1-HEK 293 cells
T1 sequence (Q9Y6L6 1-691): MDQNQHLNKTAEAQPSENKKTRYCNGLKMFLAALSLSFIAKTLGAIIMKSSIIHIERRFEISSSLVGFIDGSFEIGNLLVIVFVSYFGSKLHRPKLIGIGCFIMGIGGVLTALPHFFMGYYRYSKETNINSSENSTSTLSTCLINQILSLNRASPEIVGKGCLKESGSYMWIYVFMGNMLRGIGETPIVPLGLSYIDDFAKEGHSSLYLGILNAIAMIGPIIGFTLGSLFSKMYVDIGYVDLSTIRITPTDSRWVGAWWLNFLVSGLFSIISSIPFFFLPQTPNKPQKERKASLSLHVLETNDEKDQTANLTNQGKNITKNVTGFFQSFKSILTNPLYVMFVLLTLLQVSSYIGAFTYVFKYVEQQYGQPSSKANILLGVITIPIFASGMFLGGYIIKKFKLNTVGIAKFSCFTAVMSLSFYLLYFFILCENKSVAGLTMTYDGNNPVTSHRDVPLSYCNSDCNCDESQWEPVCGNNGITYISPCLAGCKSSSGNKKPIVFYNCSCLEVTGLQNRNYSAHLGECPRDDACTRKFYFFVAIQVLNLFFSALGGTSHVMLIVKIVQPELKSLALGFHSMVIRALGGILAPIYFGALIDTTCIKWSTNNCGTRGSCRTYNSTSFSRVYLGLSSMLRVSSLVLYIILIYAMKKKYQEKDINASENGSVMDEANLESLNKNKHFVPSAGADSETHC
Protocol: (§3) Cryopreserved cells were shortly thawed in water bath and diluted in 10 mL warm culture medium (37° C.). After medium change the cells were grown for 3d in a 25 cm^2 cell culture flask. After 3 to 5d the cells were transferred into 75 cm^2 flasks. […] All test items were prepared in transport buffer at a final concentration of 100 M from stock solutions (180 to 500 mM concentration). The OATP1B1 HEK 293 cells were incubated with test solutions (test item in transport buffer 500 L) for 40 min on a thermoshaker without shaking (PHMP, Fa. Grant Bio). Triplicates were performed for each test item. After incubation the cells were washed with 2 mL of cold PBS (+) buffer (Dulbeccos PBS+, Fa. Gibco). […] As a reference standard Gd-EOB-DTPA (gadoxetate) is used in the same well plate.

[5] = biological target: T2, OATP1B3 (Homo sapiens, UniProt Q9NPD5); assay: Uptake into stable transfected OATP1B3 HEK 293 cells; assay type: cell-based; conditions: for Uptake into OATP1B3-HEK 293 cells: 40 min incubation, relative to RC1 (Gd-EOB-DTPA); for Inhibition Rifampicine: uptake into OATP1B3-HEK 293 cells
T2 sequence (Q9NPD5 1-702): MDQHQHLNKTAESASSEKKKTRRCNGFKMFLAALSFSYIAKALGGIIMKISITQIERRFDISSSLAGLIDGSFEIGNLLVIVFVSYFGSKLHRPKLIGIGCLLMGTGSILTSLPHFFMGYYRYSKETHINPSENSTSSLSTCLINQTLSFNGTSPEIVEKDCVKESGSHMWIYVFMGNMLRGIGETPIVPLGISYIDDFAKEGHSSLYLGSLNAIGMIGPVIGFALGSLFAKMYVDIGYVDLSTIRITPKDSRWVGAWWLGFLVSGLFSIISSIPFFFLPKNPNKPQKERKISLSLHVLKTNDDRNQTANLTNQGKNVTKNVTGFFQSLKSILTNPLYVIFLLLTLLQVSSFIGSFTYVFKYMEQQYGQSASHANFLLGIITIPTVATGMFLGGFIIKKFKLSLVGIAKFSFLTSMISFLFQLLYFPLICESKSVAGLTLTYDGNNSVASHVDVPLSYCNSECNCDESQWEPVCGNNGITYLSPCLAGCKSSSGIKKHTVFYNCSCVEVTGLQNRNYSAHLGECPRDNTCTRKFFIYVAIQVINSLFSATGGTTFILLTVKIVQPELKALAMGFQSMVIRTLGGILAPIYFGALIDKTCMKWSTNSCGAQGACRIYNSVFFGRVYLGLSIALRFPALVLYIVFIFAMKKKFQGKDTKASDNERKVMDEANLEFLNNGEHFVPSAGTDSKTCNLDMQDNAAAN
Protocol: as §3, with “100 µM” for “100 M”, “The OATP1B3” for “The OATP1B1”, “500 μL)” for “500 L)”

[6] = Partition coefficient (log P butanol/buffer); assay type: physicochemical; conditions: 1-butanol / 50 mM Tris-HCl, pH 7.4, room temperature
[7] = tested on: freshly isolated rat hepatocytes; assay: Uptake into freshly isolated rat hepatocytes; conditions: for Uptake rat hepatocytes: 100 μmol Gd/L, 10 min, 37° C., relative to RC1 (Gd-EOB-DTPA); for Inhibition Rifampicine: rat hepatocyte uptake, test item and Rifampicine 1:1, each 100 μM
Protocol: After incubation the adherent hepatocytes were washed once with 37° C. Hepes carbonate transport buffer (500 μL/well). The test items and RC1 were prepared from stock solutions (180 to 500 mM concentration) in Hepes carbonate transport buffer at pH 7.4 to reach a final concentration of 100 μmol Gd/L. The specific uptake of the test item or RC1 into rat hepatocytes via OATP1B1 and OATP1B3 was challenged using a known OATP1B1/1B3 inhibitor (Rifampicine, Fa. Sigma R3501, test item and inhibitor 1:1 each 100 μM final concentration). The prepared rat hepatocyte plates were incubated with test solutions (500 μL/well) at 37° C. for 10 min using a thermoshaker (Fa. Grant Bio, PHMP). Triplicates were performed for each test item. After incubating the cells were washed once with cold PBS buffer (Fa. Gibco, Dulbeccos PBS (+)). After washing the intact hepatocytes were lysed by addition of 500 μL cold 0.01% Triton-X 100 in Millipore water for 1 h. […] As a reference standard RC1 is used in the same well plate. The hepatocyte uptake of the test compound is calculated relative to RC1 (resulting in the unit % of RC1).

Structure (SMILES) | Solubility [1] [mM] | r1 water [2] [L/mmol/s] | r1 human plasma [3] [L/mmol/s] | Uptake into OATP1B1-HEK 293 cells [4] | Inhibition Rifampicine [4] [% inhibition] | Uptake into OATP1B3-HEK 293 cells [5] | Inhibition Rifampicine [5] [% inhibition] | Log P (partition coefficient butanol/buffer) [6] | Uptake rat hepatocytes [7] | Inhibition Rifampicine [7] [% inhibition]
CCOCCOCCOCCOc1ccc(CC(C(=O)O)N2CCN(CC(=O)[O-])CCN(C(CO)C(=O)[O-])CCN(CC(=O)[O-])CC2)cc1.[Gd+3] (centres unmarked) [Example 42, gadolinium-2-{7-[1-carboxy-2-(4-{2-[2-(2-ethoxyethoxy)ethoxy]ethoxy}phenyl)ethyl]-4,10-bis(carboxylatomethyl)-1,4,7,10-tetraazacyclododecan-1-yl}-3-hydroxypropanoate] | >81 | 5.0 | 7.2 | 89 % of RC1 | 62 | 20 % of RC1 | 91 | −1.60 | 44 % of RC1 | 95
CCCC(C(=O)[O-])N1CCN(CC(=O)[O-])CCN(C(Cc2ccc(OCC)cc2)C(=O)O)CCN(CC(=O)[O-])CC1.[Gd+3] (centres unmarked) [Example 29, gadolinium 2-{7-[1-carboxy-2-(4-ethoxyphenyl)ethyl]-4,10-bis(carboxylatomethyl)-1,4,7,10-tetraazacyclododecan-1-yl}pentanoate] | >305 | 4.4 | 7.5 | 493 % of RC1 | 96 | 75 % of RC1 | 99 | −0.53 | 87 % of RC1 | 99
O=C([O-])CN1CCN(C(Cc2ccc(OCC(F)(F)C(F)F)cc2)C(=O)O)CCN(CC(=O)[O-])CCN([C@@H](CO)C(=O)[O-])CC1.[Gd+3] (mixture of isomers) [Example 33, gadolinium (2S)-2-[4,10-bis(carboxylatomethyl)-7-{1-carboxy-2-[4-(2,2,3,3-tetrafluoropropoxy)phenyl]ethyl}-1,4,7,10-tetraazacyclododecan-1-yl]-3-hydroxypropanoate] | >29 | 4.2 | 11.7 | 367 % of RC1 | 88 | 71 % of RC1 | 98 | −0.55 | 82 % of RC1 | 94
CCOCCOCCOc1ccc(CCC[C@@H](C(=O)O)N2CCN(C(CO)C(=O)[O-])CCN(C(CO)C(=O)[O-])CCN(C(CO)C(=O)[O-])CC2)cc1.[Gd+3] (mixture of isomers) [Example 21, gadolinium-2,2′,2″-{10-[(1S)-1-carboxy-4-{4-[2-(2-ethoxyethoxy)ethoxy]phenyl}butyl]-1,4,7,10-tetraazacyclododecane-1,4,7-triyl}tris(3-hydroxypropanoate)] | >368 | 5.4 | 8.5 |  | 75 |  | 94 | −1.03 | 81 % of RC1 | 91
CCOCCOCCOc1ccc(CCC[C@@H](C(=O)O)N2CCN([C@H](CO)C(=O)[O-])CCN([C@H](CO)C(=O)[O-])CCN([C@H](CO)C(=O)[O-])CC2)cc1.[Gd+3] [Example 20, gadolinium (2R,2′R,2″R)-2,2′,2″-{10-[(1S)-1-carboxy-4-{4-[2-(2-ethoxyethoxy)ethoxy]phenyl}butyl]-1,4,7,10-tetraazacyclododecane-1,4,7-triyl}tris(3-hydroxypropanoate)] | >381 | 5.6 | 9.8 |  | 87 |  | 99 | −1.11 | 71 % of RC1 | 91
CCOCCOCCOc1cc(CC(C(=O)O)N2CCN(CC(=O)[O-])CCN(CC(=O)[O-])CCN(CC(=O)[O-])CC2)cc(OCCOCCOCC)c1.[Gd+3] (centres unmarked) [Example 39, gadolinium 2,2′,2″-{10-[2-{3,5-bis[2-(2-ethoxyethoxy)ethoxy]phenyl}-1-carboxyethyl]-1,4,7,10-tetraazacyclododecane-1,4,7-triyl}triacetate] | >255 | 4.8 | 7.8 | 59 % of RC1 | 12 | 26 % of RC1 | 88 | −1.32 | 17 % of RC1 | 64
